# Assay results published in patent US20200079766A1, “MONOCYCLIC OGA INHIBITOR COMPOUNDS” (Janssen Pharmaceutica NV, priority 2016, published 2020).
# Legend:
# [1] = biological target: T1, recombinant human Meningioma Expressed Antigen 5 (MGEA5), also referred to as O-GlcNAcase (OGA) (Homo sapiens, UniProt O60502); test: OGA biochemical assay: inhibition of FM-GlcNAc hydrolysis, fluorescence; protocol A (10 nM OGA, 1 h) or protocol B (2 nM OGA, 6 h); conditions: Enzymatic protocol B (2 nM OGA, 6 h); for IC50: read-out: Enzymatic hOGA, pIC50 (converted)
# T1 construct: Full length OGA enzyme was purchased at OriGene (cat # TP322411); purchased OriGene TP322411
# T1 sequence (O60502 1-916): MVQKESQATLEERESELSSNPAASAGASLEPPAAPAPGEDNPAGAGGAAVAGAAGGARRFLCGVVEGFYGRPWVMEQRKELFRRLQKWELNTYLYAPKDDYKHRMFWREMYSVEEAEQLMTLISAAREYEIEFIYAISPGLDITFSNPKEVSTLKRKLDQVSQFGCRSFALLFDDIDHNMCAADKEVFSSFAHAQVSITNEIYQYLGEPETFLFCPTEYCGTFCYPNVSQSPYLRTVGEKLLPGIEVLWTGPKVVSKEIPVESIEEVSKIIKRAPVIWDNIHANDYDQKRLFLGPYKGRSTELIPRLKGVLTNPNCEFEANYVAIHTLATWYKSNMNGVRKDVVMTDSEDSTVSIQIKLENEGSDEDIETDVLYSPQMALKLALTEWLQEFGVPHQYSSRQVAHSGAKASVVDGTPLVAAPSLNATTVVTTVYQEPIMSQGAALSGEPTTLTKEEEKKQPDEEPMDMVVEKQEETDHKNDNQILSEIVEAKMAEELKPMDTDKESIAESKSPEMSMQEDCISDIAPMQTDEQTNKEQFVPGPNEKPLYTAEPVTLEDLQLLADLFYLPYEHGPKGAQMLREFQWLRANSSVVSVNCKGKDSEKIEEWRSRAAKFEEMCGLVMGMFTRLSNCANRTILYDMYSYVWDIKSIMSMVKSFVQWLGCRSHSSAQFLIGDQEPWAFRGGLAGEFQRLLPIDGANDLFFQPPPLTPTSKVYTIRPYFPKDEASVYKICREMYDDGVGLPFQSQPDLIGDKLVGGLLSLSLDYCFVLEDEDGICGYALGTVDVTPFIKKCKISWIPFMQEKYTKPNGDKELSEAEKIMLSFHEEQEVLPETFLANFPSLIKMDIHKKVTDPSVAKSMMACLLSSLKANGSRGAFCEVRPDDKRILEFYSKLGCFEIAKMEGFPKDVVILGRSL
# In short: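 Full-length human OGA in 200 mM citrate/phosphate pH 7.2 with 0.005% Tween-20, compound pre-incubated 60 min at RT, then 100 uM FM-GlcNAc (final); 10 nM enzyme for 1 h or 2 nM for 6 h at RT. Stopped with pH 11.0 carbonate; fluorescein read at ex 485/em 538 nm. IC50 and Hill coefficient from curve fit.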
# [2] = tested on: OGA in HEK293 cells inducible for P301L mutant human Tau (isoform 2N4R); test: OGA cellular assay: immunocytochemical detection of O-GlcNAcylated proteins (CTD110.6 antibody) after 6 h incubation; assay type: cell-based; conditions: for Emax / EC50: Homo sapiens, HEK293, 6 h; for Emax / Cellular Emax (%): maximum = Thiamet G 200 uM; for EC50: read-out: Cellular hOGA, pEC50 (converted)
# Procedure: HEK293 cells inducible for P301L mutant human Tau (isoform 2N4R) were established at Janssen. Thiamet-G was used for both plate validation (high control) and as reference compound (reference EC50 assay validation). OGA inhibition is evaluated through the immunocytochemical (ICC) detection of O-GlcNAcylated proteins by the use of a monoclonal antibody (CTD110.6; Cell Signaling, #9875) detecting O-GlcNAcylated residues as previoulsy described (Dorfmueller et al. 2010 Chemistry & biology, 17:1250). Inhibition of OGA will result in an increase of O-GlcNAcylated protein levels resulting in an increased signal in the experiment. Cell nuclei are stained with Hoechst to give a cell culture quality control and a rough estimate of immediate compounds toxicity, if any. ICC pictures are imaged with a Perkin Elmer Opera Phenix plate microscope and quantified with the provided software Perkin Elmer Harmony 4.1.
# Cells were propagated in DMEM high Glucose (Sigma, # D5796) following standard procedures. 2 days before the cell assay cells are split, counted and seeded in Poly-D-Lysine (PDL) coated 96-wells (Greiner, #655946) plate at a cell density of 12,000 cells per cm^2 (4,000 cells per well) in 100 μl of Assay Medium (Low Glucose medium is used to reduce basal levels of GlcNAcylation) (Park et al. 2014 The Journal of biological chemistry 289:13519). At the day of compound test medium from assay plates was removed and replenished with 90 μl of fresh Assay Medium. 10 μl of compounds at a 10 fold final concentration were added to the wells. Plates were centrifuged shortly before incubation in the cell incubator for 6 hours. DMSO concentration was set to 0.2%. Medium is discarded by applying vacuum. For staining of cells medium was removed and cells washed once with 100 μl D-PBS (Sigma, # D8537). From next step onwards unless other stated assay volume was always 50 μl and incubation was performed without agitation and at room temperature. Cells were fixed in 50 μl of a 4% paraformaldehyde (PFA, Alpha aesar, #043368) PBS solution for 15 minutes at room temperature. […] Before analysis samples were washed 2 times manually for 5 minutes in ICC base buffer.
# Imaging is performed using Perkin Elmer Phenix Opera using a water 20× objective and recording 9 fields per well. Intensity readout at 488 nm is used as a measure of O-GlcNAcylation level of total proteins in wells. To assess potential toxicity of compounds nuclei were counted using the Hoechst staining. IC50-values are calculated using parametric non-linear regression model fitting. As a maximum inhibition Thiamet G at a 200 uM concentration is present on each plate. In addition, a concentration response of Thiamet G is calculated on each plate.
SMILES,Emax [1],IC50 [1],Emax [2],EC50 [2],Enzymatic Emax (%) [1],Enzymatic hOGA; pIC50 [1],Cellular hOGA; pEC50 [2],Cellular Emax (%) [2]
CCOc1cc(C[C@H]2CCN(Cc3cnc(NC(C)=O)s3)C2)cc(C)n1 [compound 41],99.6%,8.51 nM,90.7%,20.9 nM,,,,
CC(=O)Nc1ncc(CN2CC[C@H](Cc3ncccc3C#N)C2)s1 [compound 45],101%,26.9 nM,80.1%,219 nM,,,,
CC(=O)Nc1ncc(CN2CC[C@H](Cc3ccc(C#N)cn3)C2)s1 [compound 46],101%,21.9 nM,85.9%,47.9 nM,,,,
CC(=O)Nc1ncc(CN2CC[C@H](Cc3nnc(C)cc3C)C2)s1 [compound 47],96.9%,40.7 nM,61.6%,288 nM,,,,
COc1cnc(C[C@H]2CCN(Cc3cnc(NC(C)=O)s3)C2)c(F)c1 [compound 48],100%,12 nM,83%,66.1 nM,,,,
CC(=O)Nc1ncc(CN2CC[C@H](Cc3ccc(OC(F)(F)F)cn3)C2)s1 [compound 49],97.9%,105 nM,89.6%,85.1 nM,,,,
CC(=O)Nc1ncc(CN2CC[C@H](Cc3ccc(C(F)F)cn3)C2)s1 [compound 50],99.4%,77.6 nM,87.4%,55 nM,,,,
CC(=O)Nc1ncc(CN2CC[C@H](Cc3cc(C(F)(F)F)cnc3C)C2)s1 [compound 51],98.3%,53.7 nM,93.5%,123 nM,,,,
CC(=O)Nc1ncc(CN2CC[C@H](Cc3cc(C)c(F)cn3)C2)s1 [compound 52],100%,14.8 nM,95.4%,91.2 nM,,,,
CC(=O)Nc1ncc(CN2CCC(Cc3cc(C(F)(F)F)ccn3)C2)s1 (stereo not shown) [compound 53],,,,,99.4%,7.05,6.76,85.6%
CC(=O)Nc1ncc(CN2CC[C@H](Cc3nc(C)ccc3C(F)(F)F)C2)s1 [compound 54],100%,28.8 nM,75.9%,234 nM,,,,
CC(=O)Nc1ncc(CN2CC[C@H](Cc3ccnc(F)c3)C2)s1 [compound 56],101%,22.9 nM,90.3%,64.6 nM,,,,
CC(=O)Nc1ncc(CN2CC[C@H](Cc3ncc(C)nc3C)C2)s1 [compound 58],101%,3.16 nM,90.6%,40.7 nM,,,,
CC(=O)Nc1ncc(CN2CC[C@H](Cc3cc(C)cnn3)C2)s1 [compound 59],101%,25.7 nM,80.3%,145 nM,,,,
CC(=O)Nc1ncc(CN2CCC(Cc3cc(C(F)(F)F)cc(C)n3)C2)s1 (stereo not shown) [compound 60],,,,,101.3%,7.30,7.03,87.4%
CC(=O)Nc1ncc(CN2CC[C@H](Cc3ccc(C)nc3)C2)s1 [compound 61],,,,,101.2%,7.71,7.22,96.3%

SMILES,Emax [1],IC50 [1],Emax [2],EC50 [2],Enzymatic Emax (%) [1],Enzymatic hOGA; pIC50 [1],Cellular hOGA; pEC50 [2],Cellular Emax (%) [2]
CC(=O)Nc1ncc(CN2CC[C@H](Cc3cnc(C)nc3)C2)s1 [compound 62],,,,,102.4%,7.93,7.20,81.8%
CC(=O)Nc1ncc(CN2CC[C@H](Cc3ccnc(C)c3)C2)s1 [compound 63],,,,,101.9%,7.90,7.46,90.1%
CC(=O)Nc1ncc(CN2CCC(Cc3cnc(C(F)(F)F)cn3)C2)s1 (stereo not shown) [compound 64],,,,,102.9%,7.34,7.04,89.3%
COc1cncc(CC2CCN(Cc3cnc(NC(C)=O)s3)C2)n1 (stereo not shown) [compound 66],,,,,101%,8.53,7.43,100.6%
COc1nccnc1CC1CCN(Cc2cnc(NC(C)=O)s2)C1 (stereo not shown) [compound 67],,,,,100.9%,7.70,6.92,84.5%
CC(=O)Nc1ncc(CN2CC[C@H](Cc3cc(C)c(C)cn3)C2)s1 [compound 69],103%,6.17 nM,101%,74.1 nM,,,,
CC(=O)Nc1ncc(CN2CC[C@H](Cc3nccc(C)c3C)C2)s1 [compound 70],102%,66.1 nM,97.7%,129 nM,,,,
CC(=O)Nc1ncc(CN2CC[C@H](Cc3ccc(C)nc3C)C2)s1 [compound 71],99.6%,12 nM,94.8%,36.3 nM,,,,
CC(=O)Nc1ncc(CN2CC[C@H](Cc3ccnc(C)c3C)C2)s1 [compound 72],102%,7.94 nM,109%,32.4 nM,,,,
CC(=O)Nc1ncc(CN2CC[C@H](Cc3cc(C)ncc3C(F)(F)F)C2)s1 [compound 73],,,,,101.4%,7.81,6.95,94%
CC(=O)Nc1ncc(CN2CC[C@H](Cc3ccncc3C)C2)s1 [compound 74],,,,,101%,8.01,7.34,115.8%
CC(=O)Nc1ncc(CN2CCC(Cc3ncc(F)cc3F)C2)s1 (stereo not shown) [compound 75],,,,,99.3%,7.63,7.11,104.1%
CC(=O)Nc1ncc(CN2CC[C@H](Cc3cc(C)nc(C(F)(F)F)c3)C2)s1 [compound 76],,,,,102.4%,7.59,7.56,92.3%
CC(=O)Nc1ncc(CN2CCC(Cc3cc(C)nc(C)n3)C2)s1 (stereo not shown) [compound 77],,,,,101.8%,7.91,7.27,91.1%
CCc1cc(C[C@H]2CCN(Cc3cnc(NC(C)=O)s3)C2)cc(C)n1.Cl [compound 80],,,,,101.5%,8.24,7.94,90%
